Target: T1, enzyme ACAT-1 (Homo sapiens, UniProt P35610)
T1 construct: endogenous in cells; host or cells: HepG2
T1 sequence (P35610 1-550): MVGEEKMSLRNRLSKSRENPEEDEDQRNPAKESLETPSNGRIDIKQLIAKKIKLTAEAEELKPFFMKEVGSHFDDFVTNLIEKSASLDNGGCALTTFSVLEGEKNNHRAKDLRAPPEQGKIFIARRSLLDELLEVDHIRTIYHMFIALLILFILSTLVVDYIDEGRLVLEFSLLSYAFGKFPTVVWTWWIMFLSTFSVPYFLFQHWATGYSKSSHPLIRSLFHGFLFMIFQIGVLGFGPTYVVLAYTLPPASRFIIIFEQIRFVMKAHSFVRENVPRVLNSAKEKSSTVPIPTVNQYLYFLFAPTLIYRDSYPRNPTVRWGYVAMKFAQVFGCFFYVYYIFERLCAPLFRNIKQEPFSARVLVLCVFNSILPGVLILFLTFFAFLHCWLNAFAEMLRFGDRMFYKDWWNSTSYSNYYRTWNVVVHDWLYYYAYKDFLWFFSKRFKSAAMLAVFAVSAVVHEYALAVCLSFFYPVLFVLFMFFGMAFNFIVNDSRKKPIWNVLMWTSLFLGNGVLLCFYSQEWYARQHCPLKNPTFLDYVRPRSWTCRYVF
Assay: NBD-cholesterol fluorescence test in HepG2 cells for inhibitory activity towards ACAT-1 (SOAT-1)
Assay type: cell-based
Details: NBD-cholesterol 1 μg/ml, incubation 6 hrs at 37° C., fluorescence excitation 490 nm, emission 540 nm
Method: The compounds (I) according to the invention, and the pharmaceutically acceptable salts, solvates and/or hydrates thereof, have inhibitory properties towards the enzyme SOAT-1. This inhibitory action on the enzyme SOAT-1 is measured according to a primary enzymatic test HepG2, as described below.
The compounds of formula (I) according to the invention were subjected to a test making it possible to evaluate their inhibitory activity towards the enzyme ACAT-1 inspired by the following publication: “Identification of ACAT1- and ACAT2-specific inhibitors using a novel, cell based fluorescence assay: individual ACAT uniqueness” J. lipid. Res (2004) vol 45, pages 378-386. The principle of this test is based on the use of NBD-cholesterol, an analogue of cholesterol whose fluorescence depends on its environment. When it is in a polar environment, it is weakly fluorescent, whereas in a non-polar environment it is strongly fluorescent. […]
The following method is applied: the HepG2 cells are incubated in the presence of NBD-cholesterol (1 μg/ml) and of the compound of formula (I) to be tested in transparent-bottomed black 96-well plates at a level of 30000 cells per well. […] After addition of 50 μl of lysis buffer (10 mM NaPO4, 1% lgepal), the plates are shaken for 5 mins and read in fluorescence (excitation 490 nm, emission 540 nm) on a FUSION instrument (Perkin Elmer).

Structure (SMILES): CC(C)c1cccc(C(C)C)c1NC(=O)NCC1(Nc2ccccc2I)CCCC1 [I.2, 1-(2,6-diisopropylphenyl)-3-[1-(2-iodophenylamino)-cyclopentylmethyl)-urea]
- IC50: 24.1 nM

Structure (SMILES): CC(C)c1cccc(C(C)C)c1NC(=O)NCC1(Nc2ccccc2-c2ccccc2)CCCC1 [I.4, 1-[1-(biphenyl-2-ylamino)-cyclopentylmethyl]-3-(2,6-diisopropylphenyl)-urea]
- IC50: 9.5 nM
